biological target: USP30 (Homo sapiens (Human), UniProt Q70CQ3); assay: USP30 biochemical FP or FI IC50 assay; conditions: read-out: IC50 range
How it was run: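 Human USP30 preincubated 30 min at room temperature with compound (8-point series, 100 µM top final) in Tris pH 7.5, Tween 20, BSA, 5 mM β-mercaptoethanol, in duplicate. FP format: 50 nM TAMRA-peptide–isopeptide-ubiquitin substrate, ex 540/em 590. FI format: 100 nM ubiquitin-rhodamine 110, ex 487/em 535. Both read at 0 and after 2 h at room temperature.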

Chain of USP30 (Q70CQ3 57-517): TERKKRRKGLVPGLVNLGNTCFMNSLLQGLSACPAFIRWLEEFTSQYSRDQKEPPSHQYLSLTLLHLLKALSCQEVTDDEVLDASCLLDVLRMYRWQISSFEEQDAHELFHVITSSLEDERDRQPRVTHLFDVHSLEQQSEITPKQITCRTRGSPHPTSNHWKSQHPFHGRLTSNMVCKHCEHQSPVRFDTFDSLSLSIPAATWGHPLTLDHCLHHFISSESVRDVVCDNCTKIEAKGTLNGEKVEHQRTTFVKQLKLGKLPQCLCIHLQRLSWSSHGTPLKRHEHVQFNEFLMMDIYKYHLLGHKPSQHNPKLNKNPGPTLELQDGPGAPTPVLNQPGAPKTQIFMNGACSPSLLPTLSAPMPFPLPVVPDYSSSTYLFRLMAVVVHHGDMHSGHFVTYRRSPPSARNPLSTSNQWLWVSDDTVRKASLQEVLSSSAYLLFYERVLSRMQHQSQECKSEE

Row | SMILES | IC50 [nM]
1 | COC1(c2ccccc2)CN(C(=O)N[C@@H]2CCN(C#N)C2)C1 [Example 188, (R)-N-(1-cyanopyrrolidin-3-yl)-3-methoxy-3-phenylazetidine-1-carboxamide] | 100 to 1000
2 | Cc1cc(-c2ccn3c(C(=O)N(C)[C@@H]4CCN(C#N)C4)cnc3c2)cc(C)n1 [Example 164, (R)-N-(1-cyanopyrrolidin-3-yl)-7-(2,6-dimethylpyridin-4-yl)-N-methylimidazo[1,2-a]pyridine-3-carboxamide] | 100 to 1000
3 | CCN(C(=O)c1cnc2cc(-c3ccnc(C)c3)ccn12)[C@@H]1CCN(C#N)C1 [Example 165, (R)-N-(1-cyanopyrrolidin-3-yl)-N-ethyl-7-(2-methylpyridin-4-yl)imidazo[1,2-a]pyridine-3-carboxamide] | 100 to 1000
4 | CN(C(=O)c1nc2ccc(-c3cnn(C)c3)cc2[nH]1)[C@@H]1CCN(C#N)C1 [Example 88, (R)-N-(1-cyanopyrrolidin-3-yl)-N-methyl-6-(1-methyl-1H-pyrazol-4-yl)-1H-benzo[d]imidazole-2-carboxamide] | 100 to 1000
5 | N#CN1CC[C@H](NC(=O)c2cccc(-c3ccccc3)n2)C1 [Example 48, (S)-N-(1-cyanopyrrolidin-3-yl)-6-phenylpicolinamide] | 1000 to 10000
6 | N#CN1CC[C@@H](NC(=O)c2cnc3cc(N4CCOCC4)ccn23)C1 [Example 166, (R)-N-(1-cyanopyrrolidin-3-yl)-7-morpholinoimidazo[1,2-a]pyridine-3-carboxamide] | 100 to 1000
7 | Cn1cc(-c2ccc(C(=O)N[C@@H]3CN(C#N)C[C@@H]3C3CC3)cc2F)cn1 (relative stereo) [Example 177, N-((cis)-1-cyano-4-cyclopropylpyrrolidin-3-yl)-3-fluoro-4-(1-methyl-1H-pyrazol-4-yl)benzamide] | 100 to 1000
8 | N#CN1CC[C@@H](NC(=O)c2cc(-c3ccccn3)ccn2)C1 [Example 217, (R)-N-(1-cyanopyrrolidin-3-yl)-[2, 4′-bipyridine]-2′-carboxamide] | 100 to 1000
9 | CN(c1ccc(C(=O)N[C@@H]2CCN(C#N)C2)c(F)c1)S(=O)(=O)c1ccccc1 [Example 228, (R)-N-(1-cyanopyrrolidin-3-yl)-2-fluoro-4-(N-methylphenylsulfonamido)benzamide] | 100 to 1000
10 | N#CN1CC[C@@H](NC(=O)c2ccc(F)c(-c3ccncc3)c2)C1 [Example 42, (R)-N-(1-cyanopyrrolidin-3-yl)-4-fluoro-3-(pyridin-4-yl)benzamide] | 100 to 1000
11 | Cc1nn(C)cc1-c1ccc(C(=O)N[C@@H]2CCN(C#N)C2)nc1 [Example 179, (R)-N-(1-cyanopyrrolidin-3-yl)-5-(1,3-dimethyl-1H-pyrazol-4-yl)picolinamide] | 100 to 1000
12 | N#CN1CC[C@@H](NC(=O)c2ccc(-c3ccncn3)cc2F)C1 [Example 108, (R)-N-(1-cyanopyrrolidin-3-yl)-2-fluoro-4-(pyrimidin-4-yl)benzamide] | 100 to 1000
13 | CO[C@H]1CN(C#N)C[C@@H]1N(C)C(=O)c1ccc(-c2cnn(C)c2)cc1 (relative stereo) [Example 178, N-((trans)-1-cyano-4-methoxypyrrolidin-3-yl)-N-methyl-4-(1-methyl-1H-pyrazol-4-yl)benzamide] | 100 to 1000
14 | N#CN1CCC(NC(=O)c2ccc(Oc3ccccc3)cc2)C1 (racemic) [Example 15, N-(1-cyanopyrrolidin-3-yl)-4-phenoxybenzamide] | 1000 to 10000
15 | N#CN1CC[C@@H](NC(=O)C2CCN(c3ccccc3)C2)C1 (stereo partly drawn) [Example 222, N-((R)-1-cyanopyrrolidin-3-yl)-1-phenylpyrrolidine-3-carboxamide] | 100 to 1000
16 | Cc1cn(-c2ccc(C(=O)N[C@@H]3CCN(C#N)C3)c(F)c2)cn1 [Example 75, (R)—N-(1-cyanopyrrolidin-3-yl)-2-fluoro-4-(4-methyl-1H-imidazol-1-yl)benzamide] | 100 to 1000
17 | N#CN1CCC(NC(=O)c2cc(-c3ccccc3)nc3ccccc23)C1 (racemic) [Example 17, N-(1-cyanopyrrolidin-3-yl)-2-phenylquinoline-4-carboxamide] | 1000 to 10000
18 | Cc1nn(C)cc1-c1ccc2nc(C(=O)N[C@@H]3CCN(C#N)C3)cn2c1 [Example 125, (R)-N-(1-cyanopyrrolidin-3-yl)-6-(1,3-dimethyl-1H-pyrazol-4-yl)imidazo[1,2-a]pyridine-2-carboxamide] | 100 to 1000
19 | CN(C(=O)Nc1cccc(Cl)c1)C1CCN(C#N)C1 (stereo not drawn) [Example 257, 3-(3-chlorophenyl)-1-(1-cyanopyrrolidin-3-yl)-1-methylurea] | 100 to 1000
20 | CN(C(=O)c1ccc(-c2cnn(C)c2)c(F)c1)[C@@H]1CCN(C#N)C1 [Example 87, (R)-N-(1-cyanopyrrolidin-3-yl)-3-fluoro-N-methyl-4-(1-methyl-1H-pyrazol-4-yl)benzamide] | 100 to 1000
21 | N#CN1CC[C@@H](NC(=O)c2ccc3c(c2)OCCN3c2ncccn2)C1 [Example 211, (R)-N-(1-cyanopyrrolidin-3-yl)-4-(pyrimidin-2-yl)-3,4-dihydro-2H-benzo[b][1, 4]oxazine-7-carboxamide] | 100 to 1000
22 | COc1cc(C(=O)N[C@@H]2CCN(C#N)C2)ccc1Nc1ncccn1 [Example 147, (R)-N-(1-cyanopyrrolidin-3-yl)-3-methoxy-4-(pyrimidin-2-ylamino)benzamide] | 100 to 1000

Now from value to compound:

Row | IC50 [nM] | SMILES
23 | < 100 | COc1ccc(-c2cc(C(=O)N[C@@H]3CCN(C#N)C3)on2)cc1 [Example 100, (R)-N-(1-cyanopyrrolidin-3-yl)-3-(4-methoxyphenyl)isoxazole-5-carboxamide]
24 | < 100 | CCN(C(=O)Nc1ccc(C(F)(F)F)cc1)[C@@H]1CCN(C#N)C1 [Example 204, (R)-1-(1-cyanopyrrolidin-3-yl)-1-ethyl-3-(4-(trifluoromethyl)phenyl)urea]
25 | < 100 | CN(C(=O)Nc1ccc(-c2ccccc2)cc1)C1CCN(C#N)C1 (stereo not drawn) [Example 259, 3-([1,1′-biphenyl]-4-yl)-1-(1-cyanopyrrolidin-3-yl)-1-methylurea]
26 | 100 to 1000 | Cc1cn(-c2ccc(C(=O)N(C)[C@@H]3CCN(C#N)C3)cc2F)cn1 [Example 224, (R)-N-(1-cyanopyrrolidin-3-yl)-3-fluoro-N-methyl-4-(4-methyl-1H-imidazol-1-yl)benzamide]
27 | < 100 | CCn1cc(-c2ccc(C(=O)N[C@@H]3CCN(C#N)C3)c(F)c2)cn1 [Example 81, (R)-N-(1-cyanopyrrolidin-3-yl)-4-(1-ethyl-1H-pyrazol-4-yl)-2-fluorobenzamide]
28 | 100 to 1000 | N#CN1CC[C@@H](N2CCCN(c3nc(-c4ccccc4)cs3)C2=O)C1 [Example 209, (R)-3-(2-oxo-3-(4-phenylthiazol-2-yl)tetrahydropyrimidin-1(2 H)-yl)pyrrolidine-1-carbonitrile]
29 | 100 to 1000 | N#CN1CCC(NC(=O)Nc2ccc(Cl)cc2Cl)C1 (stereo not drawn) [Example 251, 1-(1-cyanopyrrolidin-3-yl)-3-(2,4-dichlorophenyl)urea]
30 | < 100 | CN(C(=O)c1ccc2c(c1)CCN2c1nccc(C2CC2)n1)[C@@H]1CCN(C#N)C1 [Example 240, (R)-N-(1-cyanopyrrolidin-3-yl)-1-(4-cyclopropylpyrimidin-2-yl)-N-methylindoline-5-carboxamide]
31 | < 100 | N#CN1CC[C@@H](NC(=O)c2cnc(-c3ccccc3Cl)s2)C1 [Example 37, (R)-2-(2-chlorophenyl)-N-(1-cyanopyrrolidin-3-yl)thiazole-5-carboxamide]
32 | < 100 | N#CN1C[C@H](NC(=O)c2cnc(-c3ccccc3Cl)s2)[C@@H](O)C1 (relative stereo) [Example 93, 2-(2-chlorophenyl)-N-((trans)-1-cyano-4-hydroxypyrrolidin-3-yl) thiazole-5-carboxamide]
33 | < 100 | N#Cc1cccc(-c2ccn3c(C(=O)N[C@@H]4CCN(C#N)C4)cnc3c2)c1 [Example 160, (R)-7-(3-cyanophenyl)-N-(1-cyanopyrrolidin-3-yl)imidazo[1,2-a]pyridine-3-carboxamide]
34 | < 100 | N#CN1CC[C@@H](NC(=O)c2ccc(-c3ccncc3Cl)cc2)C1 [Example 38, (R)-4-(3-chloropyridin-4-yl)-N-(1-cyanopyrrolidin-3-yl)benzamide]
35 | < 100 | N#CN1CCC(NC(=O)c2ccc(-c3ccccc3Cl)cc2)C1 (stereo not drawn) [Example 3, 2′-chloro-N-(1-cyanopyrrolidin-3-yl)-[1,1′-biphenyl]-4-carboxamide]
36 | < 100 | Cn1ncc2cc(-c3ccc(C(=O)N[C@@H]4CCN(C#N)C4)c(F)c3)ccc21 [Example 86, (R)-N-(1-cyanopyrrolidin-3-yl)-2-fluoro-4-(1-methyl-1H-indazol-5-yl)benzamide]
37 | < 100 | Cc1noc(C)c1-c1ccc2cc(C(=O)N[C@@H]3CCN(C#N)C3)[nH]c2c1 [Example 128, (R)-N-(1-cyanopyrrolidin-3-yl)-6-(3,5-dimethylisoxazol-4-yl)-1H-indole-2-carboxamide]
38 | < 100 | N#CN1CC[C@@H](NC(=O)c2ccc(-c3ccc4nccn4c3)cc2F)C1 [Example 118, (R)-N-(1-cyanopyrrolidin-3-yl)-2-fluoro-4-(imidazo[1,2-a]pyridin-6-yl)benzamide]
39 | < 100 | N#CN1CC[C@@H](NC(=O)c2ccc(Nc3nccc(C4CC4)n3)c(F)c2)C1 [Example 213, (R)-N-(1-cyanopyrrolidin-3-yl)-4-((4-cyclopropylpyrimidin-2-yl)amino)-3-fluorobenzamide]
40 | < 100 | Cn1cc(-c2ccc3[nH]c(C(=O)N[C@@H]4CCN(C#N)C4)cc3c2)cn1 [Example 130, (R)-N-(1-cyanopyrrolidin-3-yl)-5-(1-methyl-1H-pyrazol-4-yl)-1H-indole-2-carboxamide]
41 | < 100 | N#CN1CC[C@@H](NC(=O)c2cc(-c3ccc(F)cc3F)no2)C1 [Example 272, (R)-N-(1-cyanopyrrolidin-3-yl)-3-(2,4-difluorophenyl)isoxazole-5-carboxamide]
42 | < 100 | N#CN1CC[C@@H](NC(=O)c2ccc(-c3cnc4cnccn34)cc2F)C1 [Example 185, (R)-N-(1-cyanopyrrolidin-3-yl)-2-fluoro-4-(imidazo[1,2-a]pyrazin-3-yl)benzamide]
